Source: US20090074666A1 (priority 2005, published 2009)
Like-named read-outs stand apart in the source and are kept apart here.

Assays:
[1] = test system: serum antibodies of test subjects (anti-human IgG detection); test: ELISA of serum antibodies on maleimide-activated plates; type: binding; conditions: Cys-conjugate on maleimide plate
Experimental: Peptides containing cysteine were bound through the cysteine sulfhydryl group to maleimide activated plates (Reacti-Bind™ Maleimide activated plates, Pierce).
One hundred microliters of the peptide solution (0.5 nmol of peptide) was added to each well and allowed to react overnight at +4° C.
The unreacted maleimide groups were blocked with 2-mercaptoethanol: 150 μl of 1 mM 2-mercaptoethanol in 10 mM sodium phosphate/0.15 M NaCl/2 mM EDTA, pH 7.2 was added to each well and allowed to react for 1 hour at RT.
The serum obtained from person nr. […] Control wells contained no peptide but both 2-mercaptoethanol and BSA blockings were employed. All incubations were performed in duplicates.

[2] = test system: serum antibodies of test subjects (anti-human IgG detection); conditions: N-terminal biotin conjugate on streptavidin plate
Experimental: Biotinylated peptides were bound to streptavidin-coated plates (Pierce).
The peptides sequences were as follows: • Biotin-aminohexanoyl-PWVRGV (custom product, CSS, Edinburgh, Scotland) • Biotin-aminohexanoyl-SYACKR (custom product, CSS, Edinburgh, Scotland) • Biotin-aminohexanoyl-SKAYSNC (custom product, CSS, Edinburgh, Scotland)
Prior to peptide immobilization, plates were blocked with 150 μl of 0.5% BSA in 10 mM sodium phosphate/0.15 M NaCl/0.05% Tween-20, pH 7.2, for 1.5 h at RT. The plate was then washed three times with 10 mM sodium phosphate/0.15 M NaCl/0.05% Tween-20, pH 7.2.
Peptides were dissolved in 10 mM sodium phosphate/0.15 M NaCl, pH 7.2, to a concentration of 0.5 nmol/ml. One hundred microliters of the peptide solutions (50 pmol of the peptide) were added to the wells and allowed to react overnight at +4° C. The plates were then washed four times with 10 mM sodium phosphate/0.15 M NaCl/0.05% Tween-20/0.2% BSA, pH 7.2 (washing buffer).
Serum was obtained from six healthy individuals (29-44 years of age), and dilutions 1:10, 1:100 and 1:1000 were prepared from all but one serum sample in the washing buffer. The serum obtained from person nr. 5 was instead diluted 1:25, 1:250 and 1:2500 in the washing buffer. One hundred microliters of each serum sample was added to the wells and incubated for 60 mins at RT. […] All incubations were performed in duplicates.
After serum incubation the plate was washed with the washing buffer 8 times with at least 5 min incubation period between change of the washing liquid.
The bound serum antibodies were quantitated by adding anti-human IgG (rabbit)—HRP conjugate (Sigma) in 1:30000 dilution to each well. After one hour incubation at RT, the plate was washed five times with the washing buffer. One hundred microliters of TMB+ color reagent (Dako Cytomation) was then added. The absorbance was read at 650 nm after 15 mins. Immediately after this measurement 100 μl of 1 M sulphuric acid was added and the absorbance read at 450 nm.

[3] = test system: human influenza virus A strains; type: binding
A/Beijing/262/95 H1N1 = type: binding, human influenza virus A; set-up: key: “+” = binding; “−” = no binding; “(+)” = trace binding
A/New Caledonia/20/99 = type: binding, human influenza virus A; set-up: key: “+” = binding; “−” = no binding; “(+)” = trace binding
A/Taiwan/1/86 H1N1 = type: binding, human influenza virus A; set-up: key: “+” = binding; “−” = no binding; “(+)” = trace binding
A/Kiev/301/94 H3N2 = type: binding, human influenza virus A; set-up: key: “+” = binding; “−” = no binding; “(+)” = trace binding
A/X31, A/Aichi/3/75 H3N2 = type: binding, human influenza virus A; set-up: key: “+” = binding; “−” = no binding; “(+)” = trace binding
A/PR/8/34 H1N1 = type: binding, human influenza virus A; set-up: key: “+” = binding; “−” = no binding; “(+)” = trace binding
A/Shangdong/9/93 H3N2 = type: binding, human influenza virus A; set-up: key: “+” = binding; “−” = no binding; “(+)” = trace binding
A/2/Japan/305/57 H2N2 = type: binding, human influenza virus A; set-up: key: “+” = binding; “−” = no binding; “(+)” = trace binding

Substance: Biotin-aminohexanoyl-SYACKR [Peptide 2]
- Approximate immune reactions of sera against synthetic peptides ([1]; Serum 5): weaker
- Approximate immune reactions of sera against synthetic peptides ([1]; Serum 6): strongest response
- Approximate immune reactions of sera against synthetic peptides ([2]; Serum 1, listed as Biotin-aminohexanoic-SYACKR): weakest reaction
- Approximate immune reactions of sera against synthetic peptides ([2]; Serum 2, listed as Biotin-aminohexanoic-SYACKR): strongest immune response
- Approximate immune reactions of sera against synthetic peptides ([2]; Serum 5, listed as Biotin-aminohexanoic-SYACKR): strongest immune response

Substance: Neu5Acα2-3Galβ1-4GlcNAcβ1-3(Neu5Acα2-3Galβ1-4GlcNAcβ1-6)Galβ1-4Glc [Oligosaccharide 9]
- activity on solid phase, in words [3]: active especially when presented in polyvalent form on a solid phase

Substance: Biotin-aminohexanoyl-SKAYSNC [Peptide 1]
- Approximate immune reactions of sera against synthetic peptides ([1]; Serum 1): weakly or non-reactive
- Approximate immune reactions of sera against synthetic peptides ([1]; Serum 2): reacted
- Approximate immune reactions of sera against synthetic peptides ([1]; Serum 3): reacted
- Approximate immune reactions of sera against synthetic peptides ([1]; Serum 4): reacted
- Approximate immune reactions of sera against synthetic peptides ([1]; Serum 5): weakly or non-reactive
- Approximate immune reactions of sera against synthetic peptides ([1]; Serum 6): strongest
- Approximate immune reactions of sera against synthetic peptides ([2]; Serum 1, listed as Biotin-aminohexanoic-SKAYSNC): weakly or non-reactive
- Approximate immune reactions of sera against synthetic peptides ([2]; Serum 3, listed as Biotin-aminohexanoic-SKAYSNC): strongest immune response
- Approximate immune reactions of sera against synthetic peptides ([2]; Serum 4, listed as Biotin-aminohexanoic-SKAYSNC): strongest immune response
- Approximate immune reactions of sera against synthetic peptides ([2]; Serum 5, listed as Biotin-aminohexanoic-SKAYSNC): weakly or non-reactive
- Approximate immune reactions of sera against synthetic peptides ([2]; Serum 6, listed as Biotin-aminohexanoic-SKAYSNC): weakly or non-reactive

Substance: Globoside
- Binding of influenza virus strain to glycolipids (A/Beijing/262/95 H1N1): −
- Binding of influenza virus strain to glycolipids (A/New Caledonia/20/99): −
- Binding of influenza virus strain to glycolipids (A/Taiwan/1/86 H1N1): −
- Binding of influenza virus strain to glycolipids (A/Kiev/301/94 H3N2): −
- Binding of influenza virus strain to glycolipids (A/X31, A/Aichi/3/75 H3N2): −
- Binding of influenza virus strain to glycolipids (A/PR/8/34 H1N1): −
- Binding of influenza virus strain to glycolipids (A/Shangdong/9/93 H3N2): −
- Binding of influenza virus strain to glycolipids (A/2/Japan/305/57 H2N2): −
